The results in this text go back to ChEMBL document CHEMBL5550085, “A new small molecule DoNA binding to CAG repeat RNA” (Bioorg Med Chem, 2024).

Each structure is given as a SMILES string. The source made the active and inactive calls. The calls are words filed in the database; no cut-off is given here.

As usually defined, the Kd is the concentration at which binding is half-saturated.

Format in all cases: nucleic-acid assay
The test system of experiment [1] is RNA. The experiment in a line: Binding affinity to (CAG)10 repeat RNA (unknown origin) at 2 uM by SPR analysis.
Experiment [2] has as its system RNA. Briefly: Binding affinity to CAG repeat RNA overhang (unknown origin).
The subject of experiment [3] is RNA. Briefly: Binding affinity to CAG repeat RNA terminal (unknown origin).
The test system of experiment [4] is RNA. Briefly: Binding affinity to (CAG)3 repeat RNA hairpin loop (unknown origin) by SPR analysis. The following applies: dose 0.063-2 µM. (In general: In SPR one partner is held on a chip, and binding of the other changes the refractive index at the surface.)
Experiment [5] has as its system RNA. The experiment in a line: Binding affinity to (CAG)10 repeat RNA (unknown origin) by SPR analysis. The following applies: dose 1.0 µM.
The test system of experiment [6] is RNA. Briefly: Binding affinity to (CAG)10 repeat RNA (unknown origin) at 20 uM by CSI-TOF MS analysis.
Experiment [7] deals with RNA. Briefly: Binding affinity to (CAG)10 repeat RNA (unknown origin) assessed as dissociation constant by SPR analysis.
Experiment [8] concerns RNA. Briefly: Binding affinity to (CAG)10 repeat RNA (unknown origin) assessed as association constant by SPR analysis.
For experiment [9], the system named is RNA. Briefly: Binding affinity to (CAG)10 repeat RNA (unknown origin) assessed as dissociation rate constant by SPR analysis.
Experiment [10] has as its system RNA. The experiment in a line: Binding affinity to (CAG)10 repeat RNA internal loop (unknown origin) by SPR analysis.
Experiment [11] relates to RNA. Briefly: Binding affinity to (CAG)2 repeat RNA hairpin loop (unknown origin) by SPR analysis.
Experiment [12] has as its system RNA. Briefly: Binding affinity to 5' (CAG)2 repeat RNA overhang (unknown origin) at 2 uM by SPR analysis.
For experiment [13], the system named is RNA. The experiment in a line: Binding affinity to 5' (CAG)3 repeat RNA overhang (unknown origin) at 2 uM by SPR analysis.
The test system of experiment [14] is RNA. The experiment in a line: Binding affinity to 5' (CAG)2 repeat RNA overhang (unknown origin) by SPR analysis. The following applies: dose 0.063-2 µM.
In experiment [15] the test system is RNA. The experiment in a line: Binding affinity to 5' (CAG)3 repeat RNA overhang (unknown origin) by SPR analysis. The following applies: dose 0.063-2 µM.
Experiment [16] concerns RNA. The experiment in a line: Binding affinity to 3' (CAG)2 repeat RNA overhang (unknown origin) at 0.063 to 2 uM by SPR analysis. The following applies: dose 0.063-2 µM.
Experiment [17] has as its system RNA. The experiment in a line: Binding affinity to 5' (CAG) repeat RNA hairpin loop (unknown origin) at 2 uM by SPR analysis.
For experiment [18], the system named is RNA. The experiment in a line: Binding affinity to 3' (CAG) repeat RNA hairpin loop (unknown origin) at 2 uM by SPR analysis.
Experiment [19] relates to RNA. The experiment in a line: Binding affinity to (CAG)2 repeat RNA (unknown origin) at 0.063 to 2 uM by SPR analysis. The following applies: dose 0.063-2 µM.
Experiment [20] relates to RNA. The experiment in a line: Binding affinity to (CAG)3 repeat RNA (unknown origin) at 0.063 to 2 uM by SPR analysis. The following applies: dose 0.063-2 µM.

Consider `Cc1ccc2ccc(NC(=O)CCNCCC(=O)NCc3ccc4ccc(=O)[nH]c4n3)nc2n1`, for which the outcome in experiment [1], in experiment [2] and in [3] was inactive.

For the compound `Cc1ccc2ccc(NC(=O)CCN(CCCCCN(CCC(=O)NCc3ccc4ccc(=O)[nH]c4n3)CCC(=O)Nc3ccc4ccc(C)nc4n3)CCC(=O)NCc3ccc4ccc(=O)[nH]c4n3)nc2n1`, the Activity entry in experiment [4], in experiment [5], in [14] and in [15] was “Dose-Dependent Effect” throughout. For the same compound, the result in experiment [6], in [10], in experiment [16], in experiment [17], in [18] and in experiment [19] was Active. For the same compound, in experiment [20], the result was Active. Further, the Kd in experiment [7] was found to be 6.1 µM. The Ka in experiment [8] is 0.47 10^4/M/s. In experiment [9], the Kdiss is 2.9 10^-2/s. For the same compound, the result in experiment [11], in experiment [12] and in experiment [13] was inactive.
